Species: Rattus norvegicus
Assay: DrugMatrix - Regimen: Daily Repeat
Type: toxicity, organism-based, Sprague-Dawley
Design: regimen Daily Repeat, gender Male, age 6-8 weeks
Details: in vivo, po, route oral GAVAGE, […]; for ABSOLUTE BASOPHIL / ABSOLUTE EOSINOPHIL / ABSOLUTE LYMPHOCYTE / ABSOLUTE MONOCYTE / ABSOLUTE SEGMENTED NEUTROPHIL / BASOPHIL / EOSINOPHIL / ERYTHROCYTE COUNT / HEMATOCRIT / HEMOGLOBIN / LEUKOCYTE COUNT / LYMPHOCYTE / MEAN CORPUSCULAR HEMOGLOBIN / MEAN CORPUSCULAR HEMOGLOBIN CONCENTRATION / MEAN CORPUSCULAR VOLUME / MONOCYTE / NEUTROPHIL / NUCLEATED RED BLOOD CELLS / PLATELET COUNT: tissue Blood; for ALANINE AMINOTRANSFERASE / ALBUMIN / ALKALINE PHOSPHATASE / ASPARTATE AMINOTRANSFERASE / BLOOD UREA NITROGEN / CARBON DIOXIDE / CHLORIDE / CHOLESTEROL / CREATINE PHOSPHOKINASE / CREATININE / GLUCOSE / LACTATE DEHYDROGENASE / LIPASE / PHOSPHORUS / POTASSIUM / SODIUM / TOTAL BILIRUBIN / TOTAL PROTEIN / URIC ACID: tissue Plasma
[1] = 0 mg/kg, 72 h, dose level Control, time 3 day
[2] = 0 mg/kg, 120 h, dose level Control, time 5 day
[3] = 1 mg/kg, 72 h, dose level Low, time 3 day

CCOC(=O)C1=C(C)NC(C)=C(C(=O)OCC)C1c1ccccc1/C=C/C(=O)OC(C)(C)C [LACIDIPINE]
ABSOLUTE BASOPHIL [1]: 0 CELLS/uL | ABSOLUTE EOSINOPHIL [1]: 13.67 CELLS/uL | ABSOLUTE LYMPHOCYTE [1]: 10069.5 CELLS/uL | ABSOLUTE MONOCYTE [1]: 50 CELLS/uL | ABSOLUTE SEGMENTED NEUTROPHIL [1]: 516.83 CELLS/uL | BASOPHIL [1]: 0% | EOSINOPHIL [1]: 0.17% | ERYTHROCYTE COUNT [1]: 5.44 x10E6/uL | HEMATOCRIT [1]: 33.88% | HEMOGLOBIN [1]: 13.23 G/DL | LEUKOCYTE COUNT [1]: 10.65 x10E3/uL | LYMPHOCYTE [1]: 94.67% | MEAN CORPUSCULAR HEMOGLOBIN [1]: 24.37 pg | MEAN CORPUSCULAR HEMOGLOBIN CONCENTRATION [1]: 39.05 G/DL | MEAN CORPUSCULAR VOLUME [1]: 62.38 fL | MONOCYTE [1]: 0.67% | NEUTROPHIL [1]: 4.5% | NUCLEATED RED BLOOD CELLS [1]: 0.33 /100WBC | PLATELET COUNT [1]: 414.5 x10E3/uL | ALANINE AMINOTRANSFERASE [1]: 72 u/L | ALBUMIN [1]: 3.75 G/DL | ALKALINE PHOSPHATASE [1]: 375 u/L | ASPARTATE AMINOTRANSFERASE [1]: 87.5 u/L | BLOOD UREA NITROGEN [1]: 14 mg/dL | CARBON DIOXIDE [1]: 27.5 mmol/L | CHLORIDE [1]: 95.83 MEQ/L | CHOLESTEROL [1]: 68.5 mg/dL | CREATINE PHOSPHOKINASE [1]: 284.33 u/L | CREATININE [1]: 0.16 mg/dL | GLUCOSE [1]: 156.67 mg/dL | LACTATE DEHYDROGENASE [1]: 101.83 u/L | LIPASE [1]: 9.67 u/L | PHOSPHORUS [1]: 10.33 mg/dL | POTASSIUM [1]: 5.22 MEQ/L | SODIUM [1]: 137.67 MEQ/L | TOTAL BILIRUBIN [1]: 0.13 mg/dL | TOTAL PROTEIN [1]: 5.43 G/DL | URIC ACID [1]: 0.8 mg/dL | ABSOLUTE BASOPHIL [2]: 0 CELLS/uL | ABSOLUTE EOSINOPHIL [2]: 20.67 CELLS/uL | ABSOLUTE LYMPHOCYTE [2]: 11518.33 CELLS/uL | ABSOLUTE MONOCYTE [2]: 47 CELLS/uL | ABSOLUTE SEGMENTED NEUTROPHIL [2]: 614 CELLS/uL | BASOPHIL [2]: 0% | EOSINOPHIL [2]: 0.17% | ERYTHROCYTE COUNT [2]: 5.61 x10E6/uL | HEMATOCRIT [2]: 34.25% | HEMOGLOBIN [2]: 13.38 G/DL | LEUKOCYTE COUNT [2]: 12.2 x10E3/uL | LYMPHOCYTE [2]: 94.33% | MEAN CORPUSCULAR HEMOGLOBIN [2]: 23.83 pg | MEAN CORPUSCULAR HEMOGLOBIN CONCENTRATION [2]: 39.08 G/DL | MEAN CORPUSCULAR VOLUME [2]: 61.03 fL | MONOCYTE [2]: 0.33% | NEUTROPHIL [2]: 5.17% | NUCLEATED RED BLOOD CELLS [2]: 0 /100WBC | PLATELET COUNT [2]: 941.83 x10E3/uL | ALANINE AMINOTRANSFERASE [2]: 68.83 u/L | ALBUMIN [2]: 4.12 G/DL | ALKALINE PHOSPHATASE [2]: 492.67 u/L | ASPARTATE AMINOTRANSFERASE [2]: 83.33 u/L | BLOOD UREA NITROGEN [2]: 14 mg/dL | CARBON DIOXIDE [2]: 37 mmol/L | CHLORIDE [2]: 98.67 MEQ/L | CHOLESTEROL [2]: 56.5 mg/dL | CREATINE PHOSPHOKINASE [2]: 167.33 u/L | CREATININE [2]: 0.17 mg/dL | GLUCOSE [2]: 157.5 mg/dL | LACTATE DEHYDROGENASE [2]: 104.83 u/L | LIPASE [2]: 10 u/L | PHOSPHORUS [2]: 10.43 mg/dL | POTASSIUM [2]: 5.46 MEQ/L | SODIUM [2]: 143.87 MEQ/L | TOTAL BILIRUBIN [2]: 0.17 mg/dL | TOTAL PROTEIN [2]: 5.72 G/DL | URIC ACID [2]: 0.85 mg/dL | ABSOLUTE BASOPHIL [3]: 0 CELLS/uL | ABSOLUTE EOSINOPHIL [3]: 98 CELLS/uL | ABSOLUTE LYMPHOCYTE [3]: 10170.33 CELLS/uL | ABSOLUTE MONOCYTE [3]: 49.33 CELLS/uL | ABSOLUTE SEGMENTED NEUTROPHIL [3]: 815.67 CELLS/uL | BASOPHIL [3]: 0% | EOSINOPHIL [3]: 0.67% | ERYTHROCYTE COUNT [3]: 5.08 x10E6/uL | HEMATOCRIT [3]: 32.6% | HEMOGLOBIN [3]: 13 G/DL | LEUKOCYTE COUNT [3]: 11.13 x10E3/uL | LYMPHOCYTE [3]: 91% | MEAN CORPUSCULAR HEMOGLOBIN [3]: 25.63 pg | MEAN CORPUSCULAR HEMOGLOBIN CONCENTRATION [3]: 39.9 G/DL | MEAN CORPUSCULAR VOLUME [3]: 64.17 fL | MONOCYTE [3]: 0.67% | NEUTROPHIL [3]: 7.67% | NUCLEATED RED BLOOD CELLS [3]: 0 /100WBC | PLATELET COUNT [3]: 968 x10E3/uL | ALANINE AMINOTRANSFERASE [3]: 76 u/L | ALBUMIN [3]: 3.93 G/DL | ALKALINE PHOSPHATASE [3]: 408.67 u/L | ASPARTATE AMINOTRANSFERASE [3]: 89 u/L | BLOOD UREA NITROGEN [3]: 12.33 mg/dL | CARBON DIOXIDE [3]: 25 mmol/L | CHLORIDE [3]: 96.67 MEQ/L | CHOLESTEROL [3]: 78 mg/dL | CREATINE PHOSPHOKINASE [3]: 356.67 u/L | CREATININE [3]: 0.21 mg/dL | GLUCOSE [3]: 154.33 mg/dL | LACTATE DEHYDROGENASE [3]: 122.67 u/L | LIPASE [3]: 12 u/L | PHOSPHORUS [3]: 9.57 mg/dL | POTASSIUM [3]: 5.36 MEQ/L | SODIUM [3]: 139.33 MEQ/L | TOTAL BILIRUBIN [3]: 0.13 mg/dL | TOTAL PROTEIN [3]: 5.4 G/DL | URIC ACID [3]: 0.5 mg/dL

Source: ChEMBL document CHEMBL3885881, “DrugMatrix”
